Measurements published in patent EP4371586B1, “MULTIFUNCTIONAL CHITOSAN COMPOSITES FOR BONE DEFECT FILLING AND BONE TISSUE REGENERATION AND METHODS FOR OBTAINING THEM” (Siec Badawcza Lukasiewicz - Instytut Ceramiki i Materialow …, priority 2022, dated 2024).
Ends that are not written are not given here. Peptide text beside a SMILES is read from it.

How the values were obtained:
[1] = system: Staphylococcus aureus PCM 2602; assay: MIC by microdilution method (CLSI M07-A9); format: cell-based; conditions: 24 hours at 37 °C, BHI medium, range 3.125 - 250 µg/ml
Procedure: The antimicrobial properties of the peptide were tested based on Clinical and Laboratory Standards Institute (CLSI) guidelines according to CLSI M07-A9 2012 using the microdilution method. Two bacterial pathogens were used for the study: Gram-positive Staphylococcus aureus PCM 2602 and Gram-negative Pseudomonas aeruginosa PCM 2563.
The bacterial inoculum for the experiment was prepared by direct inoculation of Brain-Heart Infusion medium (BHI) with bacteria from a 24-hour culture on solid medium. The density of the suspension was 0.5 on the McFarland scale. The peptide concentration analysed : 3.125 - 250 µg/ml . Serial dilutions were performed in a 96-well, flat-bottomed, hydrophobic cell culture plate using BHI liquid medium. Then the previously prepared bacterial suspension was added. The final number of pathogens in each well was approximately 5 × 10^5 CFU/ml (Colony Forming Units per millilitre). Microplates were incubated for 24 hours at 37 °C under aerobic conditions. The minimum inhibitory concentration (MIC) for a peptide was defined as the lowest concentration of peptide in a well where no bacterial growth was observed. All experiments were performed in triplicate. Table 3. Minimum microbial growth inhibitory concentration values for peptide ug46 against the bacteria S. aureus PCM 2602 and P. aeruginosa PCM 2563.

[2] = system: hFOB human osteoblast cell line; assay: WST-1 proliferation assay of peptides, indirect method per ISO 10993-5; format: cell-based; conditions: % of proliferation of control cells
Procedure: Cytotoxicity was tested by an indirect method based on the guidelines in ISO 10993- 5 on the hFOB human osteoblast cell line (ATCC) using the LDH assay (Roche). The results presented were averaged from two technical repeats and presented as % relative to control cells treated with 1% Triton X- 100 solution. proliferation was tested by an indirect method based on the guidelines in ISO 10993- 5 on the hFOB human osteoblast cell line (ATCC) using the WST-1 assay (Abcam). The results shown were averaged from two technical repeats and presented as % in relation to control cells cultured without added peptides.
Proliferation and cytotoxicity data were analysed and visualised using GraphPad Prism 8 software (GraphPad Software, USA). Statistical analysis was performed using the Kruskal- Wallis test (p = 0.05). In the next step, the Benjamini, Krieger and Yekutielli multiple comparisons test was performed to control the false discovery rate (p = 0.05). Comparisons were made between results obtained for individual peptide concentrations.

Molecule	Minimum inhibitory concentration of microorganisms (MIC) S. aureus PCM 2602 [1]	proliferation ([2]; any ug1/ug4 peptide concentration (none lower))	proliferation ([2]; most concentrations of ug1/ug4 peptide)
CC[C@H](C)[C@H](NC(=O)CNC(=O)[C@H](C)NC(=O)[C@H](CCC(N)=O)NC(C)=O)C(=O)N[C@H](C(=O)N[C@H](C(=O)N1CCC[C@H]1C(=O)N[C@@H](CC(C)C)C(=O)NCC(=O)N[C@@H](CC(C)C)C(=O)NCC(=O)N[C@@H](CC(C)C)C(=O)N[C@@H](CC(C)C)C(=O)N[C@@H](CCCCN)C(=O)N[C@@H](CCCNC(=N)N)C(=O)N[C@H](C(=O)N[C@@H](CCCCN)C(=O)N[C@H](C(=O)N[C@@H](CC(C)C)C(=O)N[C@@H](CC(C)C)C(N)=O)[C@@H](C)O)[C@@H](C)CC)C(C)C)C(C)C [ug46] (Ac-QAGIVVPLGLGLLKRIKTLL-NH2)	100 µg/mL		
CPLGLYGFGG [ug4, engineered pro-regenerative peptide]		≥ 70%	above 100%
